Source: patent US4462992A, “Nitroimidazole radiosensitizers for hypoxic tumor cells and compositions thereof” (priority 1982, dated 1984)
Like-named read-outs stand apart in the source and are kept apart here.

Experiments:
[1] = In vitro cytotoxicity in hypoxic cells (% survival); type: cell-based, Chinese hamster; details: hamster, v-79 cells; for viability at 2 h, 100 µM / viability at 4 h, 100 µM: 0.1 mM; for viability at 2 h, 500 µM / viability at 4 h, 500 µM: 0.5 mM
Experimental: (§1) Asynchronous monolayers of cultures of Chinese hamster cells line V-79 were employed in all experiments. The monolayers were derived from exponentially growing cultures. Methods of culturing and handling have been reported earlier by Cooke et al, Rad. Res. 65, 152 (1976). The plated cultures were rendered hypoxic in sealed dural containers capable of holding seven petri dishes, by purging with nitrogen (oxygen-free grade) for one hour. Irradiation was carried out by using a cobalt-60 source at a dose rate of approximately 240 rad/min according to the procedure described by Agrawal et al Rad. Res. 78:532 (1979). A dose of 1400 rad was given to hypoxic cells in glass petri dishes in the presence of a given drug concentration (2000 cells/dish). Cell survival was estimated from unirradiated toxic hypoxic cells exposed to the same drug concentration. Complete survival curves were obtained for each compound at the radiation doses of 400 to 3000 rad. The Do value was calculated for each compound and the ratio of the Do value for the hypoxic control cells to the Do value of the hypoxic drug treated cells provided the sensitized enhancement ratio of the corresponding agent.
(§2) Cultures were incubated for 6 days at 37° C. in an atmosphere of 5% CO2. The resulting colonies were fixed in absolute ethanol and stained with methylene blue and counted.
(§3) To determine toxicity in vitro, glass petri dishes containing approximately 200 Chinese hamster cells/dish were exposed to a range of concentrations of each drug for 2 hours and/or 4 hours at 37° C. Drug concentrations between 10 μM and 0.5 mM were employed initially.

[2] = tested on: Chinese hamster cells line V-79; experiment: Radiosensitization (enhancement ratio, cobalt-60 irradiation of hypoxic cells); type: cell-based
Experimental: as §1, §2

[3] = tested on: hypoxic cells (Chinese hamster cells line V-79); experiment: Differential toxicity to hypoxic cells at 4 hours; type: cell-based
Experimental: as §1, §3

[4] = tested on: Chinese hamster cells line V-79 (oxic); experiment: In vitro cytotoxicity in oxic cells (% survival); type: cell-based; details: 4 hours, 240 min
Experimental: as §1, §2, §3

[5] = In vitro cytotoxicity in oxic cells (% survival); type: cell-based, Chinese hamster; details: hamster, v-79 cells, oxic; for viability at 2 h, 100 µM / viability at 4 h, 100 µM: 0.1 mM
Experimental: as §1, §2, §3

in vivo = details: mouse, ip
Experimental: Neurotoxicity in mice was determined using mice of strain CDF1. This was carried out by (1) determining the LD50 of each compound in mice and (2) observing the animals for acute neurotoxic symptoms such as convulsions. The drugs were either solubilized or suspended in normal saline and administered intraperitoneally to groups of ten mice. […]

hypoxic tumor cells = details: cited from earlier work
central nervous system = details: cited from earlier work
[6] = 2 hours, read-out: In vitro cytoxicity in hypoxic cells (% survival at 2 hours)
[7] = 4 hours, read-out: In vitro cytoxicity in hypoxic cells (% survival at 4 hours)
[8] = 2 hours, read-out: In vitro cytoxicity in oxic cells (% survival at 2 hours)
[9] = 2 hours, 0.5 mM, read-out: In vitro cytoxicity in oxic cells (% survival at 2 hours)
[10] = 4 hours, read-out: In vitro cytoxicity in oxic cells (% survival at 4 hours)

Row | SMILES | viability at 2 h, 100 µM [1, 6] [%] | viability at 2 h, 500 µM [1, 6] [%] | viability at 4 h, 100 µM [1, 7] [%] | viability at 4 h, 500 µM [1, 7] [%] | Radiosensitization (enhancement ratio in Chinese hamster cells) ([2]; 0.5 mM) | Differential toxicity to hypoxic cells at 4 hours [3] | viability at 2 h, 100 µM [5, 8] [%] | viability at 2 h, 500 µM [5, 9] [%] | viability at 4 h, 100 µM [5, 10] [%] | effectiveness in vivo (hypoxic tumor cells) | also measured
1 | CC(=O)OC[C@H]1O[C@@H](n2ccnc2[N+](=O)[O-])C=C[C@@H]1OC(C)=O [C, 1(4',6di-O--acetyl2',3didehydro-2',3dideoxy-D-erythro-hexopyranosyl)-2-ni roimidazole] | 104 | 92.6 | 86.6 | 41.1 | 1.6 | Yes | 95 | 97 | 101 | – | In vitro cytoxicity in oxic cells (% survival at 4 hours) ([4]; 0.1 mM, 100 µM): 94%; In vitro cytoxicity in oxic cells (% survival at 4 hours) ([4]; 0.5 mM, 500 µM): 88%; viability at 2 h, 10 µM ([5]; 2 hours, 0.01 mM, read-out: In vitro cytoxicity in oxic cells (% survival at 2 hours)): 101%; viability at 2 h, 50 µM ([5]; 2 hours, 0.05 mM, read-out: In vitro cytoxicity in oxic cells (% survival at 2 hours)): 100%; viability at 4 h, 500 µM ([5]; 4 hours, 0.5 mM, read-out: In vitro cytoxicity in oxic cells (% survival at 4 hours)): 103%
2 | O=[N+]([O-])c1nccn1[C@@H]1C=C[C@H](O)[C@@H](CO)O1 [A, 1(2',3didehydro-2',3dideoxy-D-erythro-hexopyranonyl)-2-nitroimidazole] | 97.3 | 75.9 | 56.7 | 15.8 | 2.2 | Yes | 99 | 90 | 99 | – | viability at 2 h, 250 µM ([1]; 2 hours, 0.25 mM, read-out: In vitro cytoxicity in hypoxic cells (% survival at 2 hours)): 92%; viability at 2 h, 1000 µM ([1]; 2 hours, 1.0 mM, read-out: In vitro cytoxicity in hypoxic cells (% survival at 2 hours)): 59.6%; viability at 4 h, 250 µM ([1]; 4 hours, 0.25 mM, read-out: In vitro cytoxicity in hypoxic cells (% survival at 4 hours)): 26.7%; viability at 4 h, 1000 µM ([1]; 4 hours, 1.0 mM, read-out: In vitro cytoxicity in hypoxic cells (% survival at 4 hours)): 0%; LD50 at 24 h (in vivo): 3300 mg/kg; Radiosensitization (enhancement ratio in Chinese hamster cells) ([2]; 0.25 mM): 2.0; viability at 2 h, 250 µM ([5]; 2 hours, 0.25 mM, read-out: In vitro cytoxicity in oxic cells (% survival at 2 hours)): 104%; viability at 2 h, 1000 µM ([5]; 2 hours, 1.0 mM, read-out: In vitro cytoxicity in oxic cells (% survival at 2 hours)): 82.4%; viability at 4 h, 250 µM ([5]; 4 hours, 0.25 mM, read-out: In vitro cytoxicity in oxic cells (% survival at 4 hours)): 104%
3 | COCC(O)Cn1ccnc1[N+](=O)[O-] (stereo not drawn) [N, Misonidazole] | – | – | – | – | – | Yes | – | – | – | effective in vivo | side effects in mice (central nervous system; administered orally): peripheral neuropathy and convulsions in mice; central nervous system toxicity (central nervous system; use in humans): central nervous system toxicity is a limiting factor for their use in humans
4 | Cc1ncc([N+](=O)[O-])n1CCO [O, Metronidazole] | – | – | – | – | – | Yes | – | – | – | effective in vivo | radiosensitization activity (hypoxic tumor cells; in vivo and in vitro): active both in vivo and in vitro; Radiosensitization (enhancement ratio in Chinese hamster cells) ([2]; 1.0 mM): 1.5; side effects in mice (central nervous system; in vivo, po): peripheral neuropathy and convulsions in mice; central nervous system toxicity (central nervous system; in vivo): central nervous system toxicity is a limiting factor for their use in humans
